Data taken from patent publication US8952024B2, “Herbicidal pyrimidone derivatives” (E I du Pont de Nemours and Company, priority 2009, dated 2015).

What was measured:
Type in all cases: in vivo
[1] = tested on: barnyardgrass (Echinochloa crus-galli); experiment: Test A pre-/postemergence plant response
Procedure, shortened: (§1)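 Injury was scored visually after roughly ten days against untreated controls, 0 = no effect, 100 = complete control. Test chemicals in a surfactant-containing non-phytotoxic solvent were sprayed either onto soil preemergence or onto one- to two-leaf, 2–10 cm plants postemergence.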

[2] = tested on: pigweed (Amaranthus retroflexus); experiment: Test A pre-/postemergence plant response
Procedure, shortened: as §1

[3] = tested on: blackgrass (Alopecurus myosuroides); experiment: Test B pre-/postemergence plant response; settings: Postemergence
Procedure, shortened: (§2)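 Plants treated either at seeding (loam/sand soil) or postemergence at 2 to 18 cm height, using a surfactant-containing non-phytotoxic solvent formulation. Evaluation was visual after 13 to 15 days, 0 to 100 scale relative to controls.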

[4] = tested on: velvetleaf (Abutilon theophrasti); experiment: Test B pre-/postemergence plant response; settings: Postemergence
Procedure, shortened: as §2

[5] = tested on: goosegrass (Eleusine indica); experiment: Test B pre-/postemergence plant response; settings: Postemergence
Procedure, shortened: as §2

[6] = tested on: Surinam grass (Brachiaria decumbens); experiment: Test B pre-/postemergence plant response; settings: Postemergence
Procedure, shortened: as §2

[7] = tested on: large crabgrass (Digitaria sanguinalis); experiment: Test B pre-/postemergence plant response; settings: Postemergence
Procedure, shortened: as §2

[8] = tested on: wheat (Triticum aestivum); experiment: Test B pre-/postemergence plant response; settings: Postemergence
Procedure, shortened: as §2

[9] = tested on: downy bromegrass (Bromus tectorum); experiment: Test B pre-/postemergence plant response; settings: Postemergence
Procedure, shortened: as §2

[10] = tested on: morningglory (Ipomoea coccinea); experiment: Test B pre-/postemergence plant response; settings: Postemergence
Procedure, shortened: as §2

[11] = tested on: Italian ryegrass (Lolium multiflorum); experiment: Test B pre-/postemergence plant response; settings: Postemergence
Procedure, shortened: as §2

[12] = tested on: yellow nutsedge (Cyperus esculentus); experiment: Test B pre-/postemergence plant response; settings: Postemergence
Procedure, shortened: as §2

[13] = tested on: woolly cupgrass (Eriochloa villosa); experiment: Test B pre-/postemergence plant response; settings: Postemergence
Procedure, shortened: as §2

[14] = Postemergence, 125 g ai/ha, 0 to 100 scale where 0 is no effect and 100 is complete control
[15] = Postemergence, 500 g ai/ha, visual injury, 0 to 100 scale (0 no effect, 100 complete control), approx. ten days
[16] = Preemergence, 125 g ai/ha, 0 to 100 scale, 0 = no effect, 100 = complete control
[17] = Preemergence, 500 g ai/ha, 0 to 100 scale, 0 = no effect, 100 = complete control
[18] = 31 g ai/ha, 0 to 100 scale (0 no effect, 100 complete control)
[19] = 125 g ai/ha, scale 0 to 100 (0 no effect, 100 complete control)
[20] = 250 g ai/ha, scale 0 to 100 (0 no effect, 100 complete control), 13 to 15 days
[21] = 62 g ai/ha, scale 0 to 100 (0 no effect, 100 complete control)

CCCn1c(-c2ccccc2)ncc(C(=O)C2=C(O)C3CCC(C3)C2=O)c1=O (stereo not drawn) [Compound 226]
Plant response rating, Barnyardgrass [1, 14]: 90 | Barnyardgrass plant response rating [1, 15]: 90 | Plant response rating, Barnyardgrass [1, 16]: 30 | Plant response rating, Barnyardgrass [1, 17]: 100 | Plant response rating, Pigweed [2, 14]: 100 | Pigweed plant response rating [2, 15]: 100 | Plant response rating, Pigweed [2, 16]: 100 | Plant response rating, Pigweed [2, 17]: 100 | Plant response rating, Blackgrass [3, 18]: 5 | Plant response rating, Blackgrass [3, 19]: 40 | Plant response rating, Blackgrass [3, 20]: 60 | Plant response rating, Blackgrass [3, 21]: 30 | Plant response rating, Velvetleaf [4, 18]: 85 | Plant response rating, Velvetleaf [4, 20]: 98 | Plant response rating, Velvetleaf [4, 21]: 85 | Plant response rating, Goosegrass [5, 18]: 80 | Plant response rating, Goosegrass [5, 19]: 85 | Plant response rating, Goosegrass [5, 20]: 85 | Plant response rating, Goosegrass [5, 21]: 80 | Plant response rating, Surinam Grass [6, 18]: 75 | Plant response rating, Surinam Grass [6, 20]: 85 | Plant response rating, Surinam Grass [6, 21]: 75 | Plant response rating, Crabgrass, Large [7, 18]: 85 | Plant response rating, Crabgrass, Large [7, 19]: 95 | Plant response rating, Crabgrass, Large [7, 20]: 98 | Plant response rating, Crabgrass, Large [7, 21]: 85 | Plant response rating, Wheat [8, 18]: 10 | Plant response rating, Wheat [8, 20]: 30 | Plant response rating, Wheat [8, 21]: 15 | Plant response rating, Bromegrass, Downy [9, 18]: 0 | Plant response rating, Bromegrass, Downy [9, 19]: 5 | Plant response rating, Bromegrass, Downy [9, 20]: 30 | Plant response rating, Bromegrass, Downy [9, 21]: 0 | Plant response rating, Morningglory [10, 18]: 98 | Plant response rating, Morningglory [10, 19]: 100 | Plant response rating, Morningglory [10, 20]: 100 | Plant response rating, Morningglory [10, 21]: 98 | Plant response rating, Ryegrass, Italian [11, 18]: 0 | Plant response rating, Ryegrass, Italian [11, 20]: 20 | Plant response rating, Ryegrass, Italian [11, 21]: 0 | Plant response rating, Nutsedge, Yellow [12, 18]: 55 | Plant response rating, Nutsedge, Yellow [12, 19]: 70 | Plant response rating, Nutsedge, Yellow [12, 20]: 75 | Plant response rating, Nutsedge, Yellow [12, 21]: 65 | Plant response rating, Cupgrass, Woolly [13, 18]: 80 | Plant response rating, Cupgrass, Woolly [13, 19]: 85 | Plant response rating, Cupgrass, Woolly [13, 20]: 95 | Plant response rating, Cupgrass, Woolly [13, 21]: 80
